Reference: patent publication US9889123B2, “Polymorphs of deuterated omega-diphenylurea or salts thereof” (Suzhou Zelgen Biopharmaceuticals Co., Ltd., priority 2012, dated 2018)

Columns and labels:
Type in all cases: physicochemical
[1] = Accelerated stability test; conditions: 40° C., 75% RH, 1-6 months
[2] = Drug hygroscopicity test (Chinese Pharmacopoeia 2010 edition, Appendix XIX J); conditions: humidistatic dryer (saturated ammonium sulfate) at 25° C.±1° C. for 24 hours
Procedure: Take 4 dry glass weighing bottles with a top (The outer diameter was 60 mm and height was 30 mm). On the day before the test, the bottles was placed in a glass dryer (A saturated ammonium sulfate solution was placed in the lower part thereof) in a thermostatic and humidistatic chamber at 25° C.±1° C. (hereinafter, “a humidistatic dryer at 25° C.±1° C.”). The weighing bottle and its top were placed separately without the top on the bottle. Cover the glass dryer closely.
After each empty weighing bottle together with its top were placed in a humidistatic dryer at 25° C.±1° C. for 24 hours, weigh a set (the weighing bottle+its top) as a unit precisely respectively, recorded as m1. Take a sample appropriately, tile it in a glass weighing bottle weighed at a sample thickness of about 1 mm, and cover the bottle. Precisely weigh the weighing bottle with its top and the sample, recorded as m2. […] Then take off the top of the weighing bottles, and put the bottle and its top in the humidistatic dryer at 25° C.±1° C. for 24 hours.
After each sample were placed in a humidistatic dryer at 25° C.±1° C. for 24 hours, cover the weighing bottles with their tops respectively, and precisely weigh each weighing bottle with its top and the sample at this specific moment, recorded as m3. […]

[3] = Solubility in solvents (description of the compound)
From the text: The compound of formula I, with a molecular formula of C21H13D3ClF3N4O3 and a molecular weight of 467.84, is a white or off-white crystal powder, odorless and tasteless.

With `CNC(=O)c1cc(Oc2ccc(NC(=O)Nc3ccc(Cl)c(C(F)(F)F)c3)cc2)ccn1.Cc1ccc(S(=O)(=O)O)cc1` [polymorph II, methanol solvate of the 1/1 p-toluenesulfonate of 4-(4-{3-[4-chloro-3-(trifluoromethyl)phenyl)-ureido]-phenoxy}-2-(N-1′,1′,1′-trideutero-methyl)pico linamide] the “stability of crystal form” value [1] was “very stable”.

For `Cc1ccc(S(=O)(=O)O)cc1.[2H]C([2H])([2H])NC(=O)c1cc(Oc2ccc(NC(=O)Nc3ccc(Cl)c(C(F)(F)F)c3)cc2)ccn1` [polymorph I, 1/1 p-toluenesulfonate of 4-(4-{3-[4-chloro-3-(trifluoromethyl)phenyl)-ureido]-phenoxy}-2-(N-1′,1′,1′-trideutero-methyl)picolinamide], the hygroscopicity [2] was “no hygroscopicity”, the “weight increase (%)” value [2] was 0% and the “stability of crystal form” value [1] was “very stable”. The “purity after accelerated stability test” value ([1]; compared to freshly prepared (0 Months)) was “above 99%”.

With `[2H]C([2H])([2H])NC(=O)c1cc(Oc2ccc(NC(=O)Nc3ccc(Cl)c(C(F)(F)F)c3)cc2)ccn1` [compound of formula I, 4-(4-{3-[4-chloro-3-(trifluoromethyl)phenyl)-ureido]-phenoxy}-2-(N-1′,1′,1′-trideutero-methyl)picolinamide] the solubility in acetone ([3]; solvent acetone) was “slightly soluble”, the “solubility in anhydrous ethanol” value ([3]; solvent anhydrous ethanol) was “slightly soluble” and the “solubility in dimethyl formamide” value ([3]; solvent dimethyl formamide) was “very soluble”. For the same compound, the “solubility in dimethyl sulfoxide” value ([3]; solvent dimethyl sulfoxide) was “very soluble”, the “solubility in glacial acetic acid” value ([3]; solvent glacial acetic acid) was “slightly soluble” and the solubility in methanol ([3]; solvent methanol) was “sparingly soluble”. For the same compound, the solubility in water ([3]; solvent water) was “practically insoluble”.

With `CCO.Cc1ccc(S(=O)(=O)O)cc1.[2H]C([2H])([2H])NC(=O)c1cc(Oc2ccc(NC(=O)Nc3ccc(Cl)c(C(F)(F)F)c3)cc2)ccn1` [polymorph IV, ethanol solvate of the 1/1 p-toluenesulfonate of 4-(4-{3-[4-chloro-3-(trifluoromethyl)phenyl)-ureido]-phenoxy}-2-(N-1′,1′,1′-trideutero-methyl)pico linamide] the “stability of crystal form” value [1] was “very stable”.

For `Cc1ccc(S(=O)(=O)O)cc1.[2H]C([2H])([2H])NC(=O)c1cc(Oc2ccc(NC(=O)Nc3ccc(Cl)c(C(F)(F)F)c3)cc2)ccn1.[2H]C([2H])([2H])NC(=O)c1cc(Oc2ccc(NC(=O)Nc3ccc(Cl)c(C(F)(F)F)c3)cc2)ccn1` [polymorph V, 1/2 p-toluenesulfonate of 4-(4-{3-[4-chloro-3-(trifluoromethyl)phenyl)-ureido]-phenoxy}-2-(N-1′,1′,1′-trideutero-methyl)pico linamide], the “stability of crystal form” value [1] was “very stable”.

With `[2H]C([2H])([2H])NC(=O)c1cc(Oc2ccc(NC(=O)Nc3ccc(Cl)c(C(F)(F)F)c3)cc2)ccn1` [polymorph VI, 4-(4-{3-[4-chloro-3-(trifluoromethyl)phenyl)-ureido]-phenoxy}-2-(N-1′,1′,1′-trideutero-methyl)picolinamide] the “stability of crystal form” value [1] was “very stable”.
